Results: EPA's ToxValDB 9.5
“And” between values parts separate entries of the source, which are not always exact repeats. Identical values can stand only once.

Key:
[1] = test system: Oryctolagus sp.; settings: for NOAEL: reproduction developmental, duration: 13 days, oral; for LD50: acute, dermal
[2] = test system: Rattus norvegicus
[3] = test system: Oryctolagus sp.
[4] = test system: Oryctolagus sp.; remark: listed apart in the source
[5] = test system: Canidae; settings: chronic; duration: 9 years; oral; capsule; F; Beagle; hepatic
[6] = test system: Canidae; settings: chronic; duration: 9 years; oral; capsule; F; Beagle; hepatic; remark: listed apart in the source
[7] = test system: Mus musculus; assay: LD0; higher = less toxic; settings: acute; oral
[8] = test system: Neovison sp.; settings: repeat dose other; oral; Mink
[9] = test system: Monkey; settings: developmental; oral; M/F; reduced birth weight
[10] = test system: Rattus norvegicus; assay: LC0; higher = less toxic; settings: acute; inhalation
[11] = test system: Mus musculus
[12] = test system: Rattus norvegicus; settings: oral
[13] = test system: Canidae; settings: chronic; duration: 4 months; oral; Beagle
[14] = test system: Gallus sp.; settings: acute; oral; gavage; White Leghorn
[15] = test system: Homo sapiens; settings: clinical; oral; M/F; decreased erythrocyte cu, zn-superoxide dismutase (esod) activity in healthy adult male and female volunteers
[16] = test system: Homo sapiens; settings: clinical, duration: 10 weeks, oral, F, hematological
[17] = test system: Homo sapiens; settings: clinical; duration: 10 weeks; oral; diet; Blood: Decreased blood enzyme
[18] = test system: Homo sapiens; settings: clinical; oral; M/F; No significant adverse effects
[19] = test system: Anas platyrhynchos; settings: oral
[20] = test system: Megascops sp.; settings: oral
[21] = test system: Nycticorax nycticorax; settings: oral
[22] = test system: Rattus norvegicus; settings: subchronic; duration: 13 weeks; oral; gavage; M/F; Fischer 344; Deaths + Body Weight Changes: decrease + Absolute Organ Weight: Right kidney increase, Liver increase, Thymus decrease + Relative Organ …
[23] = test system: Mus musculus; settings: subchronic; oral; M/F; hepatic lesions
[24] = test system: Rattus norvegicus; settings: M/F
[25] = test system: Mus musculus; settings: acute; oral; gavage; CD1
[26] = test system: Rattus norvegicus; assay: LD0; higher = less toxic; settings: acute, oral, gavage
[27] = test system: Canidae; settings: repeat dose other; oral; Dog Other
[28] = test system: Rattus norvegicus; settings: repeat dose other; oral
[29] = test system: Mus musculus; settings: duration: 13 weeks, oral, M/F, CD1, Hepatotoxic lesions (males)
[30] = developmental, oral, F, maternal (reduced weight gain) and fetal toxicity
[31] = subchronic, inhalation, M/F, functional and histological peripheral neurotoxicity
[32] = chronic, inhalation, liver toxicity (fatty change)
[33] = chronic, oral, drinking water, liver toxicity (fatty change)

`COc1c(Cl)ccc(Cl)c1C(=O)O` [Dicamba] gave an NOAEL ([1]; F, New Zealand) of at most 30 mg/kg-day, an NOAEL ([1]; New Zealand, generation: F1) of at most 300 mg/kg-day and an NOAEL ([2]; developmental, duration: 14 days, oral, gavage, Crj:CD) of at most 400 mg/kg-day. It also gave an NOAEL ([2]; reproduction developmental, duration: 14 days, oral, gavage, F, Crj:CD) of at most 160 mg/kg-day, an LEL [3, 30] of 10 mg/kg-day and an NOEL [3, 30] of 3 mg/kg-day. The NOAEL ([4]; developmental, duration: 12 days, oral, gavage, Dam: Decreased weight gain + Fetus: Decreased weight + Fetus: Increased mortality + Fetus: Increased post-implantation losses) was 3 mg/kg-day.

In the case of `Nc1ccc(Cc2ccc(N)c(Cl)c2)cc1Cl` [4,4'-Methylenebis(2-chloroaniline)], the LD50 [1] is reported as over 5000 mg/kg, the LOAEL [5] is reported as 7.3 mg/kg-day and the LOAEL [6] is reported as 10 mg/kg-day. For the same compound, the LD0 [7] was 640 mg/kg.

For `Clc1cccc(-c2cc(Cl)cc(Cl)c2)c1` [Aroclor 1016], the LOAEL [8] was 3.43 mg/kg-day, the NOAEL [8] was 1.37 mg/kg-day and the LOAEL [9] was 0.028 mg/kg-day. The NOAEL [9] was 0.007 mg/kg-day.

For `FC(F)(F)C(F)(Cl)Cl` [1,1-Dichlorotetrafluoroethane], the NOAEL ([2]; short-term, duration: 2 weeks, inhalation, M, Crl:CDABR) was 289000 mg/m3 and the LC0 [10] was over 1.07e+06 mg/m3.

`C=CCCl` [Allyl chloride] was tested, and the LOAEL [3, 31] was 206 mg/m3, the NOAEL [3, 31] was 17 mg/m3 and the NOAEL ([4]; chronic, duration: 5 months, inhalation, intermittent, Nervous system: Neurotoxicity) was 17 mg/m3.

For `ClC=CCCl` [1,3-Dichloropropene], the NOAEL ([11]; chronic, duration: 2 years, inhalation, intermittent, Nasal mucosa: Hyperplasia + Nasal mucosa: Hypertrophy) was 22.7 mg/m3 and the NOEL ([12]; subchronic, duration: 90 days, diet, Organs: Increased weight) was 3 mg/kg-day.

Compound `CC(C)(C)c1ccc(OP2OCC3(CO2)COP(Oc2ccc(C(C)(C)C)cc2C(C)(C)C)OC3)c(C(C)(C)C)c1` (stereo not drawn) [Bis(2,4-di-tert-butylphenyl) pentaerythritol diphosphite] has an NOAEL [13] of 12 mg/kg-day, an LD50 [14] of over 6080 mg/kg and an LD50 ([1]; New Zealand) of over 2000 mg/kg. The LC50 ([2]; acute, inhalation, Sprague-Dawley) was over 2000 mg/m3, the LD50 ([2]; acute, oral, Sprague-Dawley) was 5580 mg/kg and the NOAEL ([2]; chronic, duration: 24 months, oral, diet, Wistar) was 39 mg/kg-day. For the same compound, the NOAEL ([2]; reproduction developmental, duration: 90 days, oral, diet, Crl:CD(SD), generation: F0) was 1000 ppm and the NOAEL ([2]; reproduction developmental, duration: 90 days, oral, diet, M, Crl:CD(SD)) was 22 mg/kg-day.

For `[Zn]` [Zinc], the LOAEL [15] was 0.91 mg/kg-day, the NOAEL [16] was 0.83 mg/kg-day and the NOAEL ([16]; capsule) was 0.83 mg/kg-day. The LOAEL [17] was 1 mg/kg-day and the NOAEL [18] was 220 mg/day and 600 mg/day.

`C[Se]CCC(N)C(=O)O` (stereo not drawn) [Selenomethionine] showed an LOAEL [19] of 0.8 mg/kg-day, an NOAEL [19] of 0.4 mg/kg-day and an LOAEL [20] of 1.5 mg/kg-day. It also gave an NOAEL [20] of 0.44 mg/kg-day and an NOAEL [21] of 1.8 mg/kg-day.

`c1ccoc1` [Furan] was tested, and the NOEL [22] was under 4 mg/kg-day, the NOAEL [23] was 2 mg/kg-day and the LOAEL ([24]; subchronic, oral, hepatic lesions) was 4 mg/kg-day. For the same compound, the NOAEL ([11]; subchronic, duration: 13 weeks, oral, gavage, Liver: Lesions) was 1.4 mg/kg-day.

In the case of `S=C(SN1CCOCC1)N1CCOCC1` [4-((Morpholinothio)thioxomethyl)morpholine], the LD50 [25] is reported as 7000 mg/kg and 9000 mg/kg and 11000 mg/kg, the LD50 ([1]; semiocclusive) is reported as over 10000 mg/kg and the LD50 ([2]; acute, oral, gavage) is reported as 5110 mg/kg. The LD50 ([2]; acute, oral, gavage, Sprague-Dawley) was 5000 mg/kg and 5200 mg/kg, the NOAEL ([2]; reproduction developmental, duration: 12 weeks, oral, diet, Sprague-Dawley, generation: F0) was 200 ppm and the NOAEL ([2]; reproduction developmental, duration: 12 weeks, oral, diet, Sprague-Dawley, generation: F1) was 600 ppm. It also gave an NOAEL ([2]; reproduction developmental, oral, diet, Sprague-Dawley, generation: F0) of 600 ppm, an LC0 [10] of 164 mg/L and an LD0 [26] of 1000 mg/kg. For the same compound, the LD0 ([26]; Sprague-Dawley) was 2700 mg/kg.

With `C=C(Cl)Cl` [1,1-Dichloroethylene] the NOAEL [27] was 2.5 mg/kg-day, the NOAEL [28] was 30 mg/kg-day and the LOAEL [24, 32] was 297 mg/m3. It also gave an NOAEL [24, 32] of 99.1 mg/m3, an LOAEL [24, 33] of 14 mg/kg-day and an NOAEL [24, 33] of 9 mg/kg-day. It also gave an LOAEL ([12]; chronic, duration: 2 years, drinking water, Liver: Lesions) of 9 mg/kg-day.

`CC1CCc2cc(F)cc3c(=O)c(C(=O)O)cn1c23` (stereo not drawn) [Flumequine] showed an NOEL ([29]; feed) of 25 mg/kg-day and an NOEL ([29]; subchronic, diet) of 25 mg/kg-day.
